Results as given in patent US20240074473A1, “METHOD FOR INDUCING HYPERTROPHIC MUSCLE FIBERS FOR INDUSTRIAL MEAT PRODUCTION” (Yeda Research and Development Co. Ltd., priority 2021, published 2024).
Where a name gives a salt, the structure may show the parent alone. Read-outs that look alike come from different tables or passages of the source.

Assays:
[1] = Risk categorization of cell culture media ingredients
Excerpt: Category 1: These cell culture media components are food ingredients/additives that are GRAS or permitted by federal regulation without limitation on use. Exemplary compounds in this category include innocuous ingredients such as sugars, pH buffers, water soluble vitamins, and common antioxidants such as tocopherols.
Category 2: These cell culture media components are common dietary nutrients and are anticipated to have GRAS status for food use or be permitted by regulation for addition to food. Examples of such compounds include most of the inorganic salts and macronutrients that are present within the cell culture media. […] Majority of nutrients present within the poultry cell-based meat may be readily measured using common validated methods for food composition testing. Batch analyses of multiple lots of the finished product may be obtained to validate the above assumptions. In some instances, consideration of established safe levels (e.g., ADI, UL) derived from a relevant authoritative body (e.g., U.S. FDA, EFSA, JECFA, FSANZ, U.S. EPA) may be leveraged to support safety. If comparisons of anticipated dietary intakes relative to an authoritative reference intake value is used, consideration of additive intakes from all dietary sources may be considered. In the absence of an authoritative reference intake value, published NOAELs from animal toxicology studies may be used to evaluate safety using standard scientific procedures for food safety evaluation. A margin of exposure (MoE) of 100-fold or greater between the NOAEL and estimated dietary intakes from food exposures is typically considered adequate to support safety. in situations where the MoE is <100-fold, additional measures for further reduction of the media component may be necessary, or further characterization of intraspecies/interspecies differences in metabolism may be necessary. These situations also require careful consideration of the regulatory status on a case-by basis (e.g., premarket approval as a food additive or GRAS evaluation required).
For example, situations where the compound is not detectable in finished product or is present at equivalent levels in comparator foods, compounds that are thermo-labile and will be digested during cooking, and/or compounds that are expected to be digested to innocuous compounds following ingestion. Examples of compounds meeting the aforementioned conditions would include recombinant growth factors and serum components. For Category 3 substances a final consideration in the safety assessment process may involve hazard characterization of the potential for a substance to produce toxic biological effects outside of the endpoints measured in a sub-chronic rat toxicity study. Substances with biological activity may require additional hazard characterization related to reproductive and developmental toxicity, or immunotoxicity. Considerations for allergenicity, biological effects in humans (e.g., effects on blood pressure), and synergistic effects with other media components also may be evaluated. […] Examples of category 3 components include recombinant proteins and animal serum.

[2] = cited from earlier work
[3] = Maximum estimated dietary exposure to media ingredients per 100 g serving; settings: assumption of complete transfer of media components to the finished product on a wt/wt basis
[4] = system: primary mouse myoblasts; experiment: Fusion index of primary mouse myoblasts (MyHC immunostaining); format: cell-based
Procedure: (§1) Isolation of and treatment of primary myoblasts. Primary mouse myoblasts were isolated from gastrocnemius muscle using trypsin-tissue dissociation. Briefly, muscle tissues were incubated in Trypsin B (0.25%, Biological Industries) and subjected to mechanical dissociation with a serological pipet. Supernatants were strained and centrifuged. Pellets were grown resuspended in BioAmf-2 media (Biological Industries, Israel) and plated on 10% Matrigel (BD Biosciences)-coated plates at 37° and 5% CO2. For all in vitro experiments, proliferation medium was Bio-Amf2 (Biological Industries, Israel) and Differentiation medium (DM) was DMEM 2% Horse Serum (HS) with 1% Pen/Strep. For fusion assays, cells were trypsinized with Trypsin C (0.05%, Biological Industries) and subjected to two rounds of preplating on uncoated plates to reduce the number of fibroblasts. Cells were plated at a density of 8×10^3 per well in 10% Matrigel-coated 96-well plates in proliferation medium for 24 hours. The following day, proliferation media was replaced either with proliferation media or with DM containing DMSO (Ctrl) or 1 μM ERK1/2 inhibitor (ERKi; SCH772984, Cayman Chemicals), […] RXR antagonist (RXRi; HX-531, Cayman Chemicals), […] Ryanodine receptor antagonist (RYRi; Dantrolene, Cayman Chemicals), 5 μM CaMKII inhibitor (CaMKIIi; KN93, Cayman Chemicals), or with DM for controls.
Immunofluorescence staining. First passage primary myoblasts isolated from various strains (indicated in figure legends) were plated in 96-well plates or chamber slides and treated as previously described. The cells were fixed with ice cold 4% PFA in PBS for 10 minutes, permeabilized with 0.5% Triton X-100 in PBS for 6 minutes, and blocked in PBS with 0.025% tween, 10% normal horse serum and 10% normal goat serum for 1 hour at room temperature. Primary antibody incubation was done in blocking buffer overnight at 4 degrees, with the following antibodies: Myosin Heavy Chain (MyHC, MF20, DSHB hybridoma supernatant 1:10, or MY-32 ABCAM ab51263 1:400), Myogenin (MYOG sc-13137 SCBT 1:200), pHistone 3 (PH3, ab47297 ABCAM 1:1000), Ki-67 (Cell Marque #275R), RYR (ab2868 ABCAM 1:100), and pCaMKII (SIGMA SAB4504356 1:100). Cells were washed 3 times in PBS with 0.025% tween and then incubated with appropriate secondary antibodies in PBS 1 hour. Where indicated, nuclei were either labeled with DAPI (SIGMA D9542, 5 ug/ml) or Hoechst 33342 (Thermo scientific #62249, 1:2000). Fixed cells at 24 hours post treatment with indicated inhibitors were imaged using the Nikon Eclipse Ti2 microscope (further described in microscopy section). All analysis was performed on at least 1000 nuclei. […]
Quantification of fusion index. Following immunostaining and imaging, a fusion index was quantified by manually identifying nuclei found in a MyHC positive cell with at least 2 nuclei. Then the values were expressed as a percentage of the total nuclei per field. Briefly, in Figures where fusion index is stratified into subgroups of fiber size, the nuclei number in MyHC positive cell was manually quantified in a given field and stratified into groups of mononucleated, bi-nucleated myotubes, myotubes with 3-10 nuclei and myotubes with greater than 10 nuclei. […] Fields were analyzed hourly, and nuclei per cell was quantified and stratified into mononucleated, bi-nucleated, tri-nucleated and cells with ≥4 nuclei.

[5] = system: primary mouse myoblasts; experiment: MYOG positive nuclei in primary mouse myoblasts (immunofluorescence); format: cell-based; settings: co-treatment with 1 μM ERKi, 24 hrs; HX531 20 uM, Dantrolene 50 uM, BAPTA-AM 10 uM, KN93 5 uM
Procedure: as §1
Immunofluorescence staining. First passage primary myoblasts isolated from various strains (indicated in figure legends) were plated in 96-well plates or chamber slides and treated as previously described. The cells were fixed with ice cold 4% PFA in PBS for 10 minutes, permeabilized with 0.5% Triton X-100 in PBS for 6 minutes, and blocked in PBS with 0.025% tween, 10% normal horse serum and 10% normal goat serum for 1 hour at room temperature. Primary antibody incubation was done in blocking buffer overnight at 4 degrees, with the following antibodies: Myosin Heavy Chain (MyHC, MF20, DSHB hybridoma supernatant 1:10, or MY-32 ABCAM ab51263 1:400), Myogenin (MYOG sc-13137 SCBT 1:200), pHistone 3 (PH3, ab47297 ABCAM 1:1000), Ki-67 (Cell Marque #275R), RYR (ab2868 ABCAM 1:100), and pCaMKII (SIGMA SAB4504356 1:100). Cells were washed 3 times in PBS with 0.025% tween and then incubated with appropriate secondary antibodies in PBS 1 hour. Where indicated, nuclei were either labeled with DAPI (SIGMA D9542, 5 ug/ml) or Hoechst 33342 (Thermo scientific #62249, 1:2000). Fixed cells at 24 hours post treatment with indicated inhibitors were imaged using the Nikon Eclipse Ti2 microscope (further described in microscopy section). All analysis was performed on at least 1000 nuclei. For fixed cells following the timecourse with ERKi or DM (FIG. 1B), images were captured with an inverted Olympus IX83 microscope (further details in microscopy section). All imaging analysis were performed on at least 1000 cells.

[6] = cell culture media ingredient used during meat production

Row | Compound | Risk Assessment Category [1] | Maximum Estimated Exposure per 100 g serving [3] [mg] | Risk Assessment Category [1, 6] | other results
1 | NC(=O)c1cccnc1 [NIACINAMIDE (NICOTINAMIDE), NIACINAMIDE] | 1 | 25 |  | Safe Reference Level for Human Dietary Intake: UL (Tolerable Upper Limit) ([2]; human dietary intake, niacinamide and magnesium sulfate: supplements): UL = 10 to 35 mg
2 | CCCCCCCC/C=C\CCCCCCCC(=O)OCCOCC(OCCO)C1OCC(OCCO)C1OCCO (centres unmarked) [TWEEN 80] |  | 4 | 2 | Safe Reference Level for Human Dietary Intake: ADI (Acceptable Daily Intake) ([2]; human dietary intake): ADI = 10 mg/kg bw/d
3 | O.O=S(=O)([O-])[O-].[Mn+2] [MANGANESE SULFATE H2O] |  | 0.003 | 1 | Safe Reference Level for Human Dietary Intake (kind of level not given) ([2]; human dietary intake): 2 to 11 mg/day
4 | Cc1ncc(C[n+]2csc(CCO)c2C)c(N)n1 [THIAMINE-HCL] | 1 | 18 |  | Safe Reference Level for Human Dietary Intake (UL) given as symbol ([2]; human dietary intake): UL = NS
5 | CC(=O)Oc1c(C)c(C)c2c(c1C)CCC(C)(CCCC(C)CCCC(C)CCCC(C)C)O2 (racemic) [DL-ALPHA-TOCOPHEROL ACETATE] |  | 8 | 1 | Safe Reference Level for Human Dietary Intake: UL (Tolerable Upper Limit) ([2]; human dietary intake): UL = 1000 mg/d
6 | C=C1CC[C@H](O)C/C1=C/C=C1\CCC[C@]2(C)[C@@H]([C@H](C)/C=C/[C@H](C)C(C)C)CC[C@@H]12 [VITAMIN D2 (ERGOCALCIFEROL), ERGOCALCIFEROL] | 1 | 0.024 |  | Safe Reference Level for Human Dietary Intake: UL (Tolerable Upper Limit) ([2]; human dietary intake): UL = 100 ug/d
7 | CC(=O)OCOC(=O)CN(CC(=O)OCOC(C)=O)c1ccccc1OCCOc1ccccc1N(CC(=O)OCOC(C)=O)CC(=O)OCOC(C)=O [BAPTA-AM] |  |  |  | Reduction of ERKi-induced fusion ([4]; co-treatment with ERKi and BAPTA-AM (10 uM per FIG. 2B)): 81%; Differentiation (percent of MYOG positive nuclei) on co-treatment with ERKi [5]: without affecting early differentiation
8 | CC(=O)C(=O)[O-].[Na+] [SODIUM PYRUVATE] |  | 1000 | 3 | Safe Reference Level for Human Dietary Intake, in words ([2]; dietary intakes within the range of OSL values reported in human investigations): Dietary intakes within
9 | O.O.O.O.O.O.O.O=S(=O)([O-])[O-].[Zn+2] [ZINC SULFATE-7H20] | 1 | 15 |  | Safe Reference Level for Human Dietary Intake: UL (Tolerable Upper Limit) ([2]; human dietary intake): UL = 5 to 40 mg/day
10 | [Cl-].[Na+] [SODIUM CHLORIDE] |  |  |  | Safe Reference Level for Human Dietary Intake (kind of level not given) ([2]; human dietary intake): 2300 mg/day
11 | O=C1CN(/N=C/c2ccc(-c3ccc([N+](=O)[O-])cc3)o2)C(O)=N1 [Dantrolene] |  |  |  | Reduction of ERKi-induced fusion ([4]; co-treatment with ERKi and 50 uM Dantrolene): 60%; Differentiation (percent of MYOG positive nuclei) on co-treatment with ERKi [5]: without affecting differentiation
